According to the CheMixHub drug solubility set:

Assay: xn = mol fraction of the nth substance listed, in the solute-free solvent

CCC(C)n1ncn(-c2ccc(N3CCN(c4ccc(OCC5COC(Cn6cncn6)(c6ccc(Cl)cc6Cl)O5)cc4)CC3)cc2)c1=O (stereo unspecified) + ClC(Cl)Cl + CCCO
solubility (g/100 g solution)
Settings	x2 = 0.05356	x2 = 0.113	x2 = 0.1792	x2 = 0.2535	x2 = 0.3375	x2 = 0.4331	x2 = 0.5431	x2 = 0.6708	x2 = 0.8209
288.15 K	0.0558	0.128	0.28	0.831	3.16	6.95	12.2	17.6	24.2
293.15 K	0.0691	0.153	0.347	1.04	3.51	7.71	13.2	18.8	25.1
298.15 K	0.0837	0.183	0.426	1.28	3.9	8.57	14.2	19.9	26.1
303.15 K	0.102	0.216	0.523	1.57	4.29	9.48	15.3	21.1	26.9
308.15 K	0.122	0.255	0.63	1.89	4.73	10.4	16.3	22.3	27.8

CCC(C)n1ncn(-c2ccc(N3CCN(c4ccc(OCC5COC(Cn6cncn6)(c6ccc(Cl)cc6Cl)O5)cc4)CC3)cc2)c1=O (stereo unspecified) + ClC(Cl)Cl + CCO
solubility (g/100 g solution)
Settings	x2 = 0.04158	x2 = 0.08894	x2 = 0.1434	x2 = 0.2065	x2 = 0.2808	x2 = 0.3694	x2 = 0.4767	x2 = 0.6097	x2 = 0.7785
288.15 K	0.0692	0.133	0.268	0.494	1.05	3.89	10.7	19.4	26.1
293.15 K	0.0835	0.16	0.32	0.565	1.38	4.82	12	20.6	26.9
298.15 K	0.0993	0.189	0.375	0.644	1.77	6	13.4	21.8	27.8
303.15 K	0.117	0.225	0.442	0.733	2.24	7.3	14.8	23	28.7
308.15 K	0.138	0.267	0.516	0.832	2.82	8.83	16.4	24.2	29.5

CCC(C)n1ncn(-c2ccc(N3CCN(c4ccc(OCC5COC(Cn6cncn6)(c6ccc(Cl)cc6Cl)O5)cc4)CC3)cc2)c1=O (stereo unspecified) + ClC(Cl)Cl + CO
solubility (g/100 g solution)
Settings	x2 = 0.02929	x2 = 0.06358	x2 = 0.1043	x2 = 0.1533	x2 = 0.2136	x2 = 0.2895	x2 = 0.3879	x2 = 0.5207	x2 = 0.7097
288.15 K	0.123	0.229	0.436	0.789	1.79	5.31	16.6	24.9	29.3
293.15 K	0.147	0.272	0.515	0.931	2.3	6.83	18.2	26.3	30.1
298.15 K	0.174	0.318	0.607	1.09	2.88	8.58	19.9	27.7	30.9
303.15 K	0.205	0.373	0.708	1.29	3.66	10.8	21.7	29.1	31.7
308.15 K	0.242	0.434	0.827	1.5	4.54	13.4	23.6	30.4	32.5

CN1CCN(C2=Nc3cc(Cl)ccc3Nc3ccccc32)CC1 + ClC(Cl)Cl + Cc1ccccc1
solubility (g/100 g solution)
Settings	x2 = 0.07983	x2 = 0.1632	x2 = 0.2513	x2 = 0.3428	x2 = 0.4382	x2 = 0.5396	x2 = 0.6452	x2 = 0.7576	x2 = 0.8755
293.15 K	2.67	2.81	3.33	3.96	4.41	5.51	6.99	8.93	11.8
298.15 K	3.12	3.3	3.67	4.31	4.65	6.29	7.75	10.1	12.8
303.15 K	3.39	3.85	4.08	4.65	5.25	6.98	8.51	10.9	13.3
308.15 K	3.94	4.46	4.87	5.59	6.7	7.99	9.81	12.6	14.4
313.15 K	4.95	5.37	6	6.97	7.69	9.1	11.1	13.9	16.5
318.15 K	5.94	6.56	6.71	8.12	9.11	10.3	12.3	16.2	19.1
323.15 K	6.09	7.9	9.16	10	10.9	12.6	15.7	19.2	22.4

CN1CCN(C2=Nc3cc(Cl)ccc3Nc3ccccc32)CC1 + ClCCCl + Cc1ccccc1
solubility (g/100 g solution)
Settings	x2 = 0.09454	x2 = 0.1907	x2 = 0.2875	x2 = 0.3851	x2 = 0.4844	x2 = 0.5848	x2 = 0.6866	x2 = 0.79	x2 = 0.8945
293.15 K	2.42	2.81	3.04	3.48	3.87	4.26	4.74	5.15	5.47
298.15 K	2.8	3.04	3.49	3.86	4.38	4.96	5.44	5.92	6.3
303.15 K	3.12	3.63	3.88	4.47	5.03	5.87	6.44	6.95	7.31
308.15 K	3.94	4.47	4.94	5.58	6.12	6.82	7.42	8.2	8.68
313.15 K	4.7	5.37	5.95	6.67	7.33	8.06	8.85	9.38	9.62
318.15 K	5.75	6.09	6.93	7.46	8.32	9.3	9.75	10.8	11.5
323.15 K	7.24	7.72	8.87	9.82	10.7	11.6	12.3	13.2	13.6

CCC(C)n1ncn(-c2ccc(N3CCN(c4ccc(OCC5COC(Cn6cncn6)(c6ccc(Cl)cc6Cl)O5)cc4)CC3)cc2)c1=O (stereo unspecified) + ClCCl + CCCCO
solubility (g/100 g solution)
Settings	x2 = 0.08928	x2 = 0.1807	x2 = 0.2744	x2 = 0.3704	x2 = 0.4687	x2 = 0.5696	x2 = 0.6731	x2 = 0.7792	x2 = 0.8882
288.15 K	0.0509	0.143	0.594	1.83	4.18	9.32	14.8	19.8	22
293.15 K	0.0634	0.189	0.775	2.27	5.04	10.4	16	20.9	23.1
298.15 K	0.078	0.249	1	2.81	5.97	11.6	17	22.1	24.2
303.15 K	0.0948	0.323	1.28	3.4	7.13	12.8	18.2	23.1	25.3
308.15 K	0.115	0.412	1.64	4.11	8.37	14	19.3	24.2	26.4

CCC(C)n1ncn(-c2ccc(N3CCN(c4ccc(OCC5COC(Cn6cncn6)(c6ccc(Cl)cc6Cl)O5)cc4)CC3)cc2)c1=O (stereo unspecified) + ClCCl + CCCO
solubility (g/100 g solution)
Settings	x2 = 0.07363	x2 = 0.1517	x2 = 0.2346	x2 = 0.3229	x2 = 0.417	x2 = 0.5176	x2 = 0.6254	x2 = 0.741	x2 = 0.8656
288.15 K	0.0545	0.15	0.459	1.65	3.95	8.85	14.4	19.5	21.8
293.15 K	0.0662	0.199	0.602	2.05	4.66	9.92	15.7	20.8	22.9
298.15 K	0.0798	0.258	0.786	2.52	5.51	11.1	17	22	24
303.15 K	0.0965	0.332	0.996	3.08	6.4	12.3	18.3	23.3	25.1
308.15 K	0.115	0.424	1.27	3.71	7.42	13.6	19.7	24.6	26.2
